From PubChem BioAssay AID248 (DTP/NCI, 2004)
Toxic doses and inconclusive results are not listed. No stated cut-off is given here; in the data, active means T/C of 150% or more; inactive means T/C below 125%.

System: L1210 leukemia ip in BDF1 mice, survival T/C
Experiment: NCI In Vivo Anticancer Drug Screen. Data for tumor model L1210 Leukemia (intraperitoneal) in B6D2F1 (BDF1) mice
Settings: endpoint: mean survival time, higher = longer survival
Method in brief: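 Each compound was tested against a transplantable tumor grown in mice. The endpoint was survival, with treated animals benchmarked against vehicle controls as a simple ratio.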

[1] = dose: 100.0 mg/kg/injection, schedule: Q04DX003 (ip), vehicle: saline
[2] = dose: 200.0 mg/kg/injection, schedule: Q04DX003 (ip), vehicle: saline
[3] = dose: 400.0 mg/kg/injection, schedule: Q04DX003 (ip), vehicle: saline
[4] = dose: 100.0 mg/kg/injection, schedule: Q01DX001 (ip), vehicle: saline
[5] = dose: 200.0 mg/kg/injection, schedule: Q01DX001 (ip), vehicle: saline
[6] = dose: 100.0 mg/kg/injection, schedule: Q04DX003 (ip), vehicle: Klucel (hydroxypropylcellulose) (HPC)
[7] = dose: 200.0 mg/kg/injection, schedule: Q04DX003 (ip), vehicle: Klucel (hydroxypropylcellulose) (HPC)
[8] = dose: 400.0 mg/kg/injection, schedule: Q04DX003 (ip), vehicle: Klucel (hydroxypropylcellulose) (HPC)
[9] = dose: 100.0 mg/kg/injection, schedule: Q01DX009 (ip), vehicle: saline with Tween-80
[10] = dose: 200.0 mg/kg/injection, schedule: Q01DX009 (ip), vehicle: saline with Tween-80
[11] = dose: 400.0 mg/kg/injection, schedule: Q01DX009 (ip), vehicle: saline with Tween-80
[12] = dose: 100.0 mg/kg/injection, schedule: Q04DX003 (ip), vehicle: saline with Tween-80
[13] = dose: 200.0 mg/kg/injection, schedule: Q04DX003 (ip), vehicle: saline with Tween-80
[14] = dose: 400.0 mg/kg/injection, schedule: Q04DX003 (ip), vehicle: saline with Tween-80
[15] = dose: 75.0 mg/kg/injection, schedule: Q01DX001 (ip), vehicle: saline
[16] = dose: 150.0 mg/kg/injection, schedule: Q01DX001 (ip), vehicle: saline
[17] = dose: 50.0 mg/kg/injection, schedule: Q01DX001 (ip), vehicle: carboxymethylcellulose (CMC)

Measured: T/C

CCC(C(N)=O)N1C(=O)C2C3CCC(O3)C2C1=O (stereo not drawn)
inactive: [1] 101 % of control | [2] 97 % of control | [3] 101 % of control

N=N/C(=C\c1c(O)[nH]c2ccccc12)c1ccccc1
inactive: dose: 100.0 mg/kg/injection, schedule: Q04DX002 (ip), vehicle: gum acacia 92 % of control | dose: 200.0 mg/kg/injection, schedule: Q04DX002 (ip), vehicle: gum acacia 89 % of control | dose: 400.0 mg/kg/injection, schedule: Q04DX002 (ip), vehicle: gum acacia 100 % of control

C(=C\C[n+]1ccccc1)/C[n+]1ccccc1
inactive: dose: 50.0 mg/kg/injection, schedule: Q01DX001 (ip), vehicle: saline 106 % of control | [4] 112 % of control | [5] 106 % of control

O=c1cc(CCCCCc2ccccc2)[nH]c(=O)[nH]1
inactive: dose: 100.0 mg/kg/injection, schedule: Q01DX001 (ip), vehicle: Klucel (hydroxypropylcellulose) (HPC) 97 % of control | dose: 200.0 mg/kg/injection, schedule: Q01DX001 (ip), vehicle: Klucel (hydroxypropylcellulose) (HPC) 97 % of control | dose: 400.0 mg/kg/injection, schedule: Q01DX001 (ip), vehicle: Klucel (hydroxypropylcellulose) (HPC) 101 % of control

Nc1cc(Nc2ccc(CCO)cc2)nc(N)n1
inactive: dose: 200.0 mg/kg/injection, schedule: Q01DX Z (ip), vehicle: methylcellulose (MC) 86 % of control

CCn1c(C)nc2cc(N=Cc3ccc(N(CCCl)CCCl)cc3)ccc21
inactive: dose: 100.0 mg/kg/injection, schedule: Q04DX002 (ip), vehicle: Klucel (hydroxypropylcellulose) (HPC) 113 % of control | dose: 200.0 mg/kg/injection, schedule: Q04DX002 (ip), vehicle: Klucel (hydroxypropylcellulose) (HPC) 106 % of control | dose: 400.0 mg/kg/injection, schedule: Q04DX002 (ip), vehicle: Klucel (hydroxypropylcellulose) (HPC) 106 % of control

CC(C)=CC(=O)NC(=O)NS(=O)(=O)c1ccc(Cl)cc1
inactive: dose: 50.0 mg/kg/injection, schedule: Q01DX009 (ip), vehicle: Klucel (hydroxypropylcellulose) (HPC) 100 % of control | dose: 100.0 mg/kg/injection, schedule: Q01DX009 (ip), vehicle: Klucel (hydroxypropylcellulose) (HPC) 107 % of control | [6] 105 % of control | dose: 200.0 mg/kg/injection, schedule: Q01DX009 (ip), vehicle: Klucel (hydroxypropylcellulose) (HPC) 98 % of control | [7] 102 % of control | [8] 106 % of control

NC(=O)c1ncc(-c2ccc(Cl)cc2)[nH]c1=O
inactive: [9] 91 % of control | [10] 97 % of control | [11] 97 % of control

Cc1ccc(S(=O)(=O)NN)cc1
inactive: [12] 97 % of control | [13] 101 % of control | [14] 88 % of control

Cc1c[n+]([O-])cc(C)c1N=Nc1ccc(N(C)C)cc1
inactive: [12] 103 % of control | [13] 96 % of control

O=C1C(Cl)(Cl)CCCC1(Cl)Cl
inactive: dose: 50.0 mg/kg/injection, schedule: Q01DX009 (ip), vehicle: saline with Tween-80 98 % of control | [9] 105 % of control | [10] 110 % of control

CCN(CC)Cc1cc(NC(C)=O)ccc1O
inactive: [1] 102 % of control | [2] 97 % of control | [3] 113 % of control

COc1ccccc1OC(=O)Nc1ccc(S(=O)(=O)NC2CCCCC2)cc1
inactive: [4] 100 % of control | [5] 91 % of control | dose: 400.0 mg/kg/injection, schedule: Q01DX001 (ip), vehicle: saline 94 % of control

Cc1ccc(NC(N)=S)nc1
inactive: [6] 100 % of control | [7] 94 % of control | [8] 99 % of control

CCOC=NC1=C(Cl)C(=O)C(N=COCC)=C(Cl)C1=O
inactive: [6] 92 % of control | [7] 94 % of control

CC(C)OP(=O)(OC=C(Cl)Cl)OC(C)C
inactive: [15] 93 % of control | [16] 91 % of control

Cc1ccc(/C=N/N)s1
inactive: dose: 100.0 mg/kg/injection, schedule: Q04DX003 (ip), vehicle: other 92 % of control | dose: 200.0 mg/kg/injection, schedule: Q04DX003 (ip), vehicle: other 99 % of control

CN(C(=O)c1cccnc1)c1ccccc1
inactive: [12] 94 % of control | [13] 96 % of control | [14] 107 % of control

COc1cccc(C(=O)C=C(C(F)(F)F)C(F)(F)F)c1
inactive: dose: 25.0 mg/kg/injection, schedule: Q04DX003 (ip), vehicle: saline with Tween-80 95 % of control | dose: 50.0 mg/kg/injection, schedule: Q04DX003 (ip), vehicle: saline with Tween-80 97 % of control | [12] 94 % of control

CN(C)C1=CS(=O)(=O)C1
inactive: [15] 94 % of control | [16] 97 % of control

c1ccc(-c2oc3ccc4ccccc4c3c2-c2ccc(OCCN3CCCC3)cc2)cc1
inactive: dose: 10.0 mg/kg/injection, schedule: Q01DX009 (ip), vehicle: Klucel (hydroxypropylcellulose) (HPC) 102 % of control | dose: 20.0 mg/kg/injection, schedule: Q01DX009 (ip), vehicle: Klucel (hydroxypropylcellulose) (HPC) 101 % of control | dose: 40.0 mg/kg/injection, schedule: Q01DX009 (ip), vehicle: Klucel (hydroxypropylcellulose) (HPC) 101 % of control | dose: 80.0 mg/kg/injection, schedule: Q01DX009 (ip), vehicle: Klucel (hydroxypropylcellulose) (HPC) 101 % of control

CC1(C)OC(CI)C(COS(C)(=O)=O)O1 (stereo not drawn)
inactive: [12] 114 % of control | dose: 115.0 mg/kg/injection, schedule: Q01DX001 (ip), vehicle: steriod suspending solution 97 % of control | dose: 173.0 mg/kg/injection, schedule: Q01DX001 (ip), vehicle: steriod suspending solution 90 % of control | [13] 105 % of control | [14] 111 % of control

CCCCOCN1C(=O)N(COCCCC)C(=O)C(CC)(c2ccccc2)C1=O
inactive: [9] 97 % of control | [10] 94 % of control | [11] 87 % of control

C1COC(C2OCCO2)C1 (stereo not drawn)
inactive: dose: 100.0 mg/kg/injection, schedule: Q01DX009 (ip), vehicle: saline 103 % of control | dose: 200.0 mg/kg/injection, schedule: Q01DX009 (ip), vehicle: saline 90 % of control | dose: 400.0 mg/kg/injection, schedule: Q01DX009 (ip), vehicle: saline 95 % of control

NS(=O)(=O)CCCCCCN1C(=O)c2ccccc2C1=O
inactive: [12] 91 % of control | [13] 93 % of control | [14] 93 % of control

CC(=O)C=P(c1ccccc1)(c1ccccc1)c1ccccc1
inactive: [17] 113 % of control | dose: 100.0 mg/kg/injection, schedule: Q01DX001 (ip), vehicle: carboxymethylcellulose (CMC) 97 % of control | dose: 200.0 mg/kg/injection, schedule: Q01DX001 (ip), vehicle: carboxymethylcellulose (CMC) 101 % of control

C#C/C(=N\Nc1ccc([N+](=O)[O-])cc1[N+](=O)[O-])c1ccccc1
inactive: dose: 75.0 mg/kg/injection, schedule: Q04DX002 (ip), vehicle: saline with Tween-80 91 % of control | dose: 150.0 mg/kg/injection, schedule: Q04DX002 (ip), vehicle: saline with Tween-80 102 % of control | dose: 300.0 mg/kg/injection, schedule: Q04DX002 (ip), vehicle: saline with Tween-80 88 % of control

O=[N+]([O-])c1cc2c(cc1/C=N/N=C1c3ccccc3-c3ccccc31)OCO2
inactive: dose: 75.0 mg/kg/injection, schedule: Q01DX001 (ip), vehicle: other 94 % of control | dose: 150.0 mg/kg/injection, schedule: Q01DX001 (ip), vehicle: other 92 % of control

CCCCOc1ccc(NC(N)=Nc2ccc(Cl)cc2)cc1
inactive: dose: 2.5 mg/kg/injection, schedule: Q01DX009 (ip), vehicle: saline with Tween-80 102 % of control | dose: 5.0 mg/kg/injection, schedule: Q01DX009 (ip), vehicle: saline with Tween-80 94 % of control | dose: 10.0 mg/kg/injection, schedule: Q01DX009 (ip), vehicle: saline with Tween-80 96 % of control | dose: 10.0 mg/kg/injection, schedule: Q04DX003 (ip), vehicle: saline with Tween-80 101 % of control | dose: 12.5 mg/kg/injection, schedule: Q01DX001 (ip), vehicle: carboxymethylcellulose (CMC) 109 % of control | dose: 20.0 mg/kg/injection, schedule: Q01DX009 (ip), vehicle: saline with Tween-80 103 % of control | dose: 20.0 mg/kg/injection, schedule: Q04DX003 (ip), vehicle: saline with Tween-80 92 % of control | dose: 25.0 mg/kg/injection, schedule: Q01DX001 (ip), vehicle: carboxymethylcellulose (CMC) 100 % of control | dose: 40.0 mg/kg/injection, schedule: Q04DX003 (ip), vehicle: saline with Tween-80 97 % of control | [17] 100 % of control | dose: 80.0 mg/kg/injection, schedule: Q04DX003 (ip), vehicle: saline with Tween-80 98 % of control
